We go through one compound from US7183061B2, “Method of expressing Heliothis ecdysone receptor fusion protein” (Syngenta Limited, priority 1996, dated 2007).

For one assay, the system named is Spodoptera exigua. The following applies: compared with Heliothis; cited from earlier work.
In assay [1] the target is T1, glucocorticoid/Heliothis ecdysone chimeric receptor (UniProt O18473+P04150).
T1 sequence (P04150+O18473 with tags, fused parts or gaps): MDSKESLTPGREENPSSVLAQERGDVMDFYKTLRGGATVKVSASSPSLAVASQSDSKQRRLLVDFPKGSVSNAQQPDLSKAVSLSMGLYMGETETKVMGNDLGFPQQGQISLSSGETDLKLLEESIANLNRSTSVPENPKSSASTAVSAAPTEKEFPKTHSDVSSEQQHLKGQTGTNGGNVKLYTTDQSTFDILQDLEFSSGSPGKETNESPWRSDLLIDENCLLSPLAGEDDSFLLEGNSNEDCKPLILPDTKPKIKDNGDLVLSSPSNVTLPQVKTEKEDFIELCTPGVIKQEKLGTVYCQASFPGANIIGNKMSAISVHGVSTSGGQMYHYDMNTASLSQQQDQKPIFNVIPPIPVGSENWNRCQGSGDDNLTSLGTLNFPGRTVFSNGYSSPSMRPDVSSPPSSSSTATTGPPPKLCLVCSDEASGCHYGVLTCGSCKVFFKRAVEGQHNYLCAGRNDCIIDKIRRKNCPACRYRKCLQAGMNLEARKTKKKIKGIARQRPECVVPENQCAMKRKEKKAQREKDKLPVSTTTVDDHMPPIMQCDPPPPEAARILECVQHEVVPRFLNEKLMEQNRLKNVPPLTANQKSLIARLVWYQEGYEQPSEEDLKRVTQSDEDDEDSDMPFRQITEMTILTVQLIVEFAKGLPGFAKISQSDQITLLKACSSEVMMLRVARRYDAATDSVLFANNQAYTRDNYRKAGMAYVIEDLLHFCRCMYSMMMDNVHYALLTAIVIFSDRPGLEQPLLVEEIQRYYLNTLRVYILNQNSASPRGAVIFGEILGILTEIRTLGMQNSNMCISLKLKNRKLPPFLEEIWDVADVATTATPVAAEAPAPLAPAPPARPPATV
The assay is described as follows: CHO cells transfected with pcDNA3GRHEcR and pSWGRE4 (β-galactosidase reporter). The following applies: co-transformed CHO cells (FIG. 27). On the set-up: expressed in transfected cells; host or cells: CHO-K1 (A7). It is filed as cell-based, Heliothis virescens. As for the experimental part: Transfections of mammalian cell lines (CHO-K1 Chinese hamster ovary) ATCC number CCL61 or cos-1 (Monkey cell line) were performed using either calcium phosphate precipitation (Gorman, Chapter 6 of “DNA cloning: a practical approach. Vol 2 D. M. Glover ed/.(1985) IRL Press, Oxford) or using LipofectAMINE (Gibco BRL Cat. No. 18324–012, following manufacturer's instructions). […] 293 cells were transfected using analogous methods.
The mammalian expression vector used in this experiment was pcDNA3 (Invitrogen). The GRHEcR 2.7 kb BamHI DNA fragment (isolated from pMF6GRHEcR) was introduced into the pcDNA3 BamHI vector. The recombinants were oriented by restriction enzyme mapping. The DNA sequence of the junctions was determined to ensure correct orientation and insertion (pcDNA3GRHEcR, FIG. 25).
The reporter plasmid for mammalian cell system was produced by taking pSWBGAL plasmid and replacing the CRESW SpeI/ClaI fragment for a synthetic 105 bp DNA fragment containing 4 copies of the glucocorticoid response element (GRE) and flanked by SpeI at the 5′ end and AflII at the 3′ end.
The two oligonucleotides were purified annealed and ligated to pSWBGAL SpeI/AflII to produce pSWGRE4 (FIG. 26).
A screen was carried out using CHO cells transiently transfected with both pSWGRE4 (reporter) and pcDNA3GRHEcR (effector) constructs. […]

The target in assay [2] is T1, glucocorticoid/Heliothis ecdysone chimeric receptor. The assay is described as follows: Tobacco mesophyll protoplast GUS reporter assay with chimeric effector and p221.9GRE6. On the set-up: expressed in transfected cells; host or cells: maize protoplasts (A5); tobacco mesophyll protoplasts (A6); CHO-K1 (A7); HEK293 (A8); stably transformed tobacco plants (A9). It is filed as cell-based, Heliothis virescens. The following applies: tobacco protoplasts, 10 μM. As for the experimental part: It is the aim in this example to show the generic application to plants of the glucocorticoid/Heliothis ecdysone chimeric receptor switch system. Tobacco shoot cultures cv. Samsun, were maintained on solidified MS medium +3% sucrose in a controlled environment room (16 hour day/8 hour night at 25° C., 55% R.H), were used as the source material for protoplasts. Leaves were sliced parallel to the mid-rib, discarding any large veins and the slices were placed in CPW13M 13% Mannitol, pH 5.6, ˜860 mmol/kg) for ˜1 hour to pre-plasmolyse the cells. This solution was replaced with enzyme mixture (0.2% Cellulase R10, 0.05% Macerozyme R10 in CPW9M (CPW13M but 9% Mannitol), pH 5.6, ˜600 mmol/kg) and incubated in the dark at 25° C. overnight (˜16 hours). Following digestion, the tissue was teased apart with forceps and any large undigested pieces were discarded. The enzyme mixture was passed through a 75 μm sieve and the filtrate was centrifuged at 600 rpm for 3.5 minutes, discarding the supernatant. The pellet was resuspended in 0.6 M sucrose solution and centrifuged at 600 rpm for 10 minutes. The floating layer of protoplasts was removed using a Pasteur pipette and diluted with CPW9M (pH 5.6, ˜560 mmol/kg). The protoplasts were again pelleted by centrifuging at 600 rpm for 3.5 minutes, resuspended in CPW9M and counted. A modified version of the PEG-mediated transformation above was carried out. […]

As to `CCc1ccc(C(=O)NN(C(=O)c2cc(C)cc(C)c2)C(C)(C)C)cc1` [RH5992, 3,5-dimethylbenzoic acid 1-1(1,1-dimethylethyl)-2(4-ethylbenzoyl)hydrazide], the sensitivity of species result in the assay on Spodoptera exigua is “more sensitive to RH5992 than Heliothis”. The “chemical induced reporter gene activity” value in assay [1] was “significant chemical induced reporter gene activity”. The marker gene activity result in assay [2] is “significant elevation of marker gene activity”.
